In patent US20050038113A1, “Valproic acid and derivatives for the combinatorial therapeutic treatment of human cancers and for the treatment of tumor metastasis and minimal residual disease” (G2M Cancer Drugs AG, priority 2001, published 2005):

How the values were obtained:
[1] = tested on: SKBR3 breast carcinoma cells; test: MTT cell viability assay; type: cell-based, Human; conditions: for cell viability: single reagent, valproic acid 3 mM
Protocol: (§1) Human MDA-MB468, MDA-MB453 and SKBR3 breast carcinoma cells and A431 squamous cell carcinoma cells were maintained in Dulbecco's modified Eagle's medium (DMEM, BioWhittaker, Verviers, Belgium) supplemented with 10% heat inactivated fetal bovine serum (FBS), 2 mM L-glutamine, 100 units/ml penicillin, and 100 μg/ml streptomycin.
(§2) Tumor cells were seeded in 96 well plates at a density of 1×10^4 cells/well in normal growth medium. […] Control cells were grown in the absence of valproic acid or antibodies. 10 μl of 10 mg/ml 3-(4,5-dimethylthiazole-2-yl)-2,5 diphenyltetrazolium bromide (MTT) (Sigma, Deisenhofen, Germany) in PBS were added to each well and the cells were incubated for another 3 h. Cells were lysed by the addition of 90 μl of lysis buffer (20% SDS in 50% dimethyl formamide, pH 4.7). After solubilization of the formazan product, the absorption at 590 nm was determined in a microplate reader (Dynatech, Denkendorf, Germany) and the relative amount of viable cells in comparison to cells cultured without the addition of valproic acid or antibodies was calculated.
(§3) Human SKBR3 breast carcinoma cells, A431 squamous cell carcinoma cells and SKOV3 ovarian carcinoma cells were maintained in Dulbecco's modified Eagle's medium (DMEM, BioWhittaker, Verviers, Belgium) supplemented with 10% heat-inactivated fetal bovine serum (FBS), 2 mM L-glutamine, 100 units/ml penicillin, and 100 μg/ml streptomycin.
(§4) Tumor cells were seeded in 96 well plates at a density of 1×10^4 cells/well in normal growth medium. […] Renca-lacZ/ErbB2, Renca-lacZ/EGFR and Renca-lacZ/EGFRvIII cells were treated for 40 h with valproic acid at a final concentration of 1 mM, or 10 ng/ml of the recombinant anti-ErbB2 single chain antibody-toxin scFv(FRP5)-ETA, or 1 ng/ml of the recombinant anti-EGF receptor single chain antibody-toxin scFv(14E1)-ETA, or a combination of valproic acid with either scFv(FRP5)-ETA or scFv(14E1)-ETA at the same concentrations. Control cells were grown in the absence of valproic acid or antibody-toxins. Ten μl of 10 mg/ml 3-(4,5-dimethylthiazole-2-yl)-2,5 diphenyltetrazolium bromide (MTT) (Sigma, Deisenhofen, Germany) in PBS were added to each well and the cells were incubated for another 3 h. Cells were lysed by the addition of 90 μl of lysis buffer (20% SDS in 50% dimethyl formamide, pH 4.7). After solubilization of the formazan product, the absorption at 590 nm was determined in a microplate reader (Dynatech, Denkendorf, Germany) and the relative amount of viable cells in comparison to cells cultured without the addition of valproic acid or antibody-toxins was calculated.

[2] = tested on: A431 squamous cell carcinoma cells; test: MTT cell viability assay; type: cell-based, Human; conditions: for cell viability: single reagent, valproic acid 3 mM
Protocol: as §1, §2, §3, §4

mouse embryos = conditions: when properly dosed; cited from earlier work
Renca-lacZ cells = test: in vivo mouse model of renal carcinoma lung metastasis (X-Gal staining); parameters: species or system Balb/c mice; conditions: 2×400 mg/kg/day i.p. Na-VPA; Renca-lacZ cells into tail vein; vs glucose solution
From the text: Mouse renal carcinoma cells (Renca) were established from a spontaneously arising kidney tumor in Balb/c mice. These cells efficiently form tumors in the lung upon transplantation into Balb/c mice through the tail vein and the tumorigenic properties of Renca cells have been well established (Murphy, et al., 1973, J. Natl. Cancer Inst., 50: 1013-1025; Hrushesky et al., 1973, J. Surg. Res., 15: 327-332; Williams et al., 1981, Res. Comm. Chem. Pathol. Pharmacol., 34: 345-349). The circulating tumor cells in this model setting represent a mimicry of situations frequently found in tumor patients when residual tumor cells are circulating in a patient's body and finally invade and home in various organs to grow as metastatic tumors. The inhibition of such minimal residual tumor diseases is one of the major aims of modern tumor therapy and can be experimentally examined in the in vivo model used here. Renca cells and the transfected cell clone Renca-lacZ (encoding for β-galactosidase) were grown in RPMI-1640 supplemented with 10% fetal calf serum (FCS). For metastasis formation in recipient mice […] Renca-lacZ cells in 100 μl PBS were injected into the lateral tail vein of female Balb/c mice at 4 to 6 weeks of age. […] Metastatic surface nodules were analyzed under a dissecting microscope and representative pictures were taken and are presented in FIG. 9.

histone deacetylases = conditions: cited from earlier work
[3] = tested on: HCT-15 colon cancer cells; test: SRB-assay, reduction in total cellular biomass; type: cell-based, human
Protocol: The reduction in cellular biomass was measured by SRB-assay. For this assay cells were seeded in 96 well culture dishes at densities between 3000 and 8000 cells per well. […] Cultures were fixed with cold TCA producing a final TCA concentration of 10%. After 1 hour of incubation at 4° C. the cells were washed five times with water and air dried. Fixed cells were stained for 30 minutes with 0,4% (wt/vol) Sulforhodamine B (SRB) dissolved in 1% acetic acid and washed four times with 1% acetic acid to remove unbound dye. After air drying bound dye was solubilized with 10 mM unbuffered Tris base (pH 10,5) for 5 minutes. Optical densities were read on a Titertek Multiskan Plus spectrophotometric plate reader at 550 nm. Six test wells for each dose-response were set in parallel with 12 growth control wells per cell line. A measure of the cell population density at time 0 (To; the time at which the drug was added) was also made from 12 extra reference wells of cells fixed with TCA just prior to drug addition to the test plates. Background OD of complete medium with 5% FBS fixed and stained as described above was also determined in 12 separate wells. From the unprocessed OD data from each microtiter plate the background OD measurements (i.e. OD of complete medium plus stain and OD of cells at T0) were subtracted thus giving the reduction of cellular biomass of the cells.
This was in particular obvious when lower concentrations of 5-FU were used. E.g. […] Thus, this combinatorial activity of these two drugs must be explained via a synergistic activity of this treatment.

[4] = 3 mM valproic acid + 10 ng/ml scFv(14E1)-ETA, 40 h
[5] = 3 mM valproic acid + 10 ng/ml scFv(FRP5)-ETA, 40 h
[6] = 40 h, scFv(FRP5)-ETA 10 ng/ml, scFv(14E1)-ETA 10 ng/ml

**Q.** What does the source list for `CCCC(CCC)C(=O)O` [VPA, 2-propylpentanoic acid]?
**A.** cell viability, combination treatment [1, 4]: pronounced additive therapeutic effect; cell viability, combination treatment [1, 5]: pronounced additive therapeutic effect; cell viability, combination treatment ([1]; 3 mM valproic acid + 2 μg/ml Herceptin, 70 h): pronounced additive therapeutic effect; cell viability [1, 6]: inhibit the viability; cell viability ([1]; 70 h, Herceptin 2 μg/ml): inhibit the viability; cell viability, combination treatment ([2]; 3 mM VPA + 2 μg/ml c225, 70 h): synergistic reduction of cell viability; cell viability, combination treatment [2, 4]: pronounced additive therapeutic effect; cell viability, combination treatment [2, 5]: pronounced additive therapeutic effect; cell viability [2, 6]: inhibit the viability; cell viability ([2]; 70 h, c225 2 μg/ml): inhibit the viability; teratogenicity (mouse embryos): teratogenic in the majority of mouse embryos; formation of lung metastasis (number and size of metastatic nodules) (Renca-lacZ cells): effectively inhibited the formation of lung metastasis; histone deacetylase inhibition (histone deacetylases): acts as an inhibitor of histone deacetylases; reduction in cellular biomass ([3]; 0.75 mM VPA in combination with 5-FU, 48 hours, compared to VPA or 5-FU alone): synergistic reduction in cellular biomass; decrease in cellular biomass ([3]; 5-FU lower than 0.5 μM in combination with 0.75 mM VPA, compared to 0.75 mM VPA alone): stronger decrease in cellular biomass
